Here are results for five compounds from PMC10539501 (Nature Communications, 2023).

Starred links: 1 amine or outer side, 2 acyl side, 3 side chain; linkers in the order of their positions; H or OH if unused. Non-standard residues stand in square brackets, D forms with d. Residues, ends and D or L forms follow the SMILES beside them. X1 = CC(C)C[C@H](NC(=S)[C@H](Cc1ccc(O)cc1)N[*:1])C(=O)[*:2]; X9 = O=C([C@@H]1CCCN1C(=S)[C@H](Cc1ccccc1)N[*:1])[*:2]

A short description of one data set: SIF. Conditions: up to 72 hours.
The format of data set [1] is physicochemical.
Data set [2] can be described thus: PAMPA passive permeability.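 Note: passive permeability across an artificial membrane in 96-well pre-coated PAMPA plates, which lack transporters and efflux systems.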 Type of data set: in vitro ADME. Background: The PAMPA barrier holds no transporters, so it reflects passive diffusion.
Data set [3] is classed as physicochemical. This is another data set of the same source.
Data set [4] is described as follows: in vitro. Format: in vitro ADME, human.
Another data set concerns Caco-2 cells. As to the kind of experiment: in vitro. Format: in vitro ADME, human. Conditions: Caco-2.
In data set [5] the target is T1, pepsin (Sus scrofa, UniProt P00791). To be noted: pH 1.2.
For data set [6] the following is noted: rat, in vivo, po, 10 mg/kg.
Data set [7] can be described thus: in vivo. To be noted: male, Wistar, rat.
Another data set is described as follows: physchem. To be noted: pH 7.4.
Data set [8] can be described thus: in vitro. To be noted: both, human, plasma.
Data set [9] concerns the target T1, pepsin. As to the kind of experiment: in vitro. To be noted: simulated gastric fluid, pH 1.2.
Data set [10] in a line: in vitro. To be noted: pig, simulated intestinal fluid.
Data set [11] is described as follows: in vitro. Conditions: human, microsomes.
The nature of data set [12]: in vitro. To be noted: both, human, plasma. This is another data set of the same source.
Data set [13] can be described thus: Retention in hydrophobic C18 column by HPLC. Conditions: Supplementary Fig 3d, logD7.4 vs tR.
Data set [14] is described as follows: Octanol-water distribution coefficient (logD7.4). To be noted: octanol-water, pH 7.4; value plotted against PAMPA (Supplementary Fig 12).
Data set [15] is described as follows: HDX of amide protons by NMR in DMSO-d6:D2O (8:2). Conditions: HDX by NMR, 20% D2O in DMSO-d6.
Data set [16] in a line: HDX of amide protons by NMR in CDCl3:CD3OD (8:2).
The target of a further data set is T2, SSTR2 (Homo sapiens, UniProt P30874).
T2 construct: expressed in transfected cells; host or cells: HEK-293T (CRL-3216)
As to the kind of experiment: GloSensor assay, inhibition of forskolin-induced cAMP production. Conditions: read-out: IC50 sstr2. Format: cell-based. In general terms: Cyclic AMP is a second messenger, typically raised through Gs and lowered through Gi signalling.

Another data set has as its target T3, SSTR5 (Homo sapiens, UniProt P35346).
T3 construct: expressed in transfected cells; host or cells: HEK-293T (CRL-3216)
The data set is described as above. Format: cell-based. Here is the method:
HEK-293T cells (CRL-3216 from ATCC, procured from NCCS, Pune) were co-transfected with human somatostatin receptor subtypes 2 & 5, plasmid cDNA, and cAMP biosensor (pGloSensorTM-22F plasmid; Promega Corp.) using PEImax. Ligand incubation was followed by the addition and incubation of forskolin (FSK) to the plate. Dose-dependent inhibition of forskolin-induced cAMP production by the peptide ligands was measured using a luminescence plate reader. An elaborate description of the assay setup has been provided in Supplementary Information.

A short description of data set [17]: in vivo. To be noted: male, rat, sc.
Where [18] appears, read: 20% CD3OD in CDCl3, % remaining after 24 hours.
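Throughout, for Papp A-B avg (second block): Caco-2 monolayers used 21 days after seeding in HBSS-HEPES buffer with 1% DMSO, donor and acceptor levels quantified by LC-MS/MS, TEER checked before and after.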
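Throughout, for Papp A-B set 1 (second block): Caco-2 monolayers used 21 days after seeding in HBSS-HEPES buffer with 1% DMSO, donor and acceptor levels quantified by LC-MS/MS, TEER checked before and after.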
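Throughout, for Papp A-B set 2 (second block): Caco-2 monolayers used 21 days after seeding in HBSS-HEPES buffer with 1% DMSO, donor and acceptor levels quantified by LC-MS/MS, TEER checked before and after.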
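Throughout, for Papp B-A avg (second block): Caco-2 monolayers used 21 days after seeding in HBSS-HEPES buffer with 1% DMSO, donor and acceptor levels quantified by LC-MS/MS, TEER checked before and after.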

T1 sequence (P00791 60-385): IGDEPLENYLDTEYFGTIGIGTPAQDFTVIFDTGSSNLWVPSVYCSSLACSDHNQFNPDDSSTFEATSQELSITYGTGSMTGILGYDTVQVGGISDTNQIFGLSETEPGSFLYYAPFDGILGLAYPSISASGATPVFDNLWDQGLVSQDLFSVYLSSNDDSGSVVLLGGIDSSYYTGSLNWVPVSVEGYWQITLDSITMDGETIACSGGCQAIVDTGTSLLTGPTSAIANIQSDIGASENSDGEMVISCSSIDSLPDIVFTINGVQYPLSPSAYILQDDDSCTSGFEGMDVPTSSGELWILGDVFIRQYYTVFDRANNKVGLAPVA
T3 sequence (P35346 whole entry): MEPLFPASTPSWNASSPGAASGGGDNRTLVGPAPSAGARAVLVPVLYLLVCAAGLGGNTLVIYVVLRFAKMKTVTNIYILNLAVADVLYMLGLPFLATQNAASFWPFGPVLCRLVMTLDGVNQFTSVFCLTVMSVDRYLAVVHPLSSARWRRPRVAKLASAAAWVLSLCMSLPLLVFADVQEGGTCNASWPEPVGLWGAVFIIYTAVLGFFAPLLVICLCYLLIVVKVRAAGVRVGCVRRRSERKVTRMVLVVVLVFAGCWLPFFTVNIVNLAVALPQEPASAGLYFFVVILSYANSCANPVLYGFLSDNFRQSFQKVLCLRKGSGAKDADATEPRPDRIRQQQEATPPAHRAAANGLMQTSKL
T2 sequence (P30874 whole entry): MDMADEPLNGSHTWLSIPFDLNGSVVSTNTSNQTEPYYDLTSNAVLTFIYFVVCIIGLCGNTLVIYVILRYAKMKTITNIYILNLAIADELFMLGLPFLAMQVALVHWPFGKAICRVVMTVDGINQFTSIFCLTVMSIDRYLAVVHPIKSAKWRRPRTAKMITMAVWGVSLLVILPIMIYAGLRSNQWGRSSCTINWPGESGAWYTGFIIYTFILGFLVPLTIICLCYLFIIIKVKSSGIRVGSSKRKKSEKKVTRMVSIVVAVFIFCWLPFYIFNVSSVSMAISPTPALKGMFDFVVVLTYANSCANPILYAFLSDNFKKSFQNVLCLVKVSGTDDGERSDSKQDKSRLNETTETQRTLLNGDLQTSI

In the case of cyclo(D-Trp^1-Lys-Thr-Phe-Pro-Phe^6), the not cleaved result in the data set “SIF” is “prevented the degradation of the macrocycle over 72 h”.
Turning to cyclo(D-Trp^1-Lys'-Thr-Phe-Pro-Phe^6), in the data set “SIF”, the not cleaved entry is reported as “prevented the degradation of the macrocycle over 72 h”.
As to `CC(C)C[C@@H]1NC(=O)[C@@H](CC(C)C)NC(=O)[C@H](CC(C)C)NC(=S)[C@H](Cc2ccc(O)cc2)NC(=O)[C@H]2CCCN2C(=O)[C@H](CC(C)C)NC1=O` [10e] (cyclo(LL[dP][X1][dL])), the “% solubility” value in data set [1] was determined as 14%. In addition, in data set [2], the “Pe Avg” value was 7.4 ×10⁻⁶ cm/s, the “Pe set1” value is 7.43 ×10⁻⁶ cm/s, the “Pe set2” value amounted to 6.36 ×10⁻⁶ cm/s and the “Pe set3” value stood at 8.29 ×10⁻⁶ cm/s. For the same compound, the Papp (commonly the rate of passage across a membrane or cell layer, normalised by area and donor concentration) in data set [2] (Pe Avg) was 7.4 ×10⁻⁶ cm/s. This compound displayed a logD heptane ethylene glycol in [3] of 0.94. Further, the apparent permeability from apical to basolateral (Papp A→B) (commonly how fast a substance crosses the layer from the apical side) in “in vitro [4]” (Caco-2, Papp A-B + Elacridar avg) was determined as 6.1 ×10⁻⁶ cm/s. In addition, the Papp A→B in the data set “in vitro [4]” (Caco-2, Papp A-B avg) came to 2.01 ×10⁻⁶ cm/s. Besides, the Papp B→A (usually how fast a substance crosses the layer from the basolateral side) in the data set “in vitro [4]” (Caco-2, Papp B-A + Elacridar avg) was 9.5 ×10⁻⁶ cm/s. Moreover, in “in vitro [4]” (Caco-2, Papp B-A avg), the Papp B→A was determined as 37.6 ×10⁻⁶ cm/s. In addition, in the data set on Caco-2 cells, the “Papp A-B avg (second block)” value is 2.01 ×10⁻⁶ cm/s, the “Papp A-B set 1 (second block)” value was 2.06 ×10⁻⁶ cm/s, the “Papp A-B set 2 (second block)” value came to 1.96 ×10⁻⁶ cm/s and the “Papp B-A avg (second block)” value is 37.6 ×10⁻⁶ cm/s. Further, in the data set on Caco-2 cells, the “Papp B-A set 1 (second block)” value was 38.6 ×10⁻⁶ cm/s and the “Papp B-A set 2 (second block)” value is 36.7 ×10⁻⁶ cm/s. Moreover, in the data set with plasma proteins, the “Protein binding set1” value amounted to 100%, the “Protein binding set2” value was found to be 95% and the “Protein binding set3” value is 100%. Besides, the “Half lives (SGF) set1” value on pepsin [5] turned out to be 259 min. The Half lives with human liver microsomes was 24.8. Moreover, in data set [6], the AUClast p.o came out at 359.5 ng·h/mL and the “time over which the peptide is detectable in plasma” value was at least 8 h. Further, in the data set “in vivo [7]” (iv), the exposure AUC(0-t) – broadly, the area under the concentration-time curve up to a stated or last time point – came to 2280 ng·h/mL; the Cmax (commonly the highest concentration seen after dosing) came to 2660 ng/mL; the MRT (in general, a mean duration of stay, worked out from the concentration-time curve) amounted to 1.5 h; the volume of distribution (Vd) (as a rule, a proportionality between amount in the body and measured concentration, not a real space) turned out to be 0.7 L/kg. For the same compound, the clearance (usually the volume of plasma or blood freed of the substance per unit of time) in “in vivo [7]” (iv) amounted to 7.5 mL/min/kg. In addition, the bioavailability (usually dose-corrected exposure relative to a reference, in per cent) in “in vivo [7]” (po) was found to be 1.6%. Further, in the data set “in vivo [7]” (po, 10 mg/kg), the AUC(0-t) came to 360 ng·h/mL, the highest level (Cmax) was 47.2 ng/mL, the mean residence time MRT was found to be 5.9 h and the level at 3 h was found to be 32.6 ng/mL. The logD (usually lipophilicity at a set pH, counting ionised and neutral species) in “physchem” turned out to be 1.45. In the data set “in vitro [8]”, the unbound share (fraction unbound) (in general, free concentration divided by total concentration) is 0.01. On pepsin [9], the half-life (commonly how long it takes for the measured level to halve) was 3.83 h; the fraction remaining – broadly, the share of the starting amount still present when the sample was taken – at 5 min is 82%; the amount remaining at 10 min is 78%; the amount remaining at 20 min was 73%. Besides, at pepsin [9], the fraction remaining at 0.5 h was 66%, the share remaining at 1 h was 61%, the fraction remaining at 2 h is 58% and the share remaining at 4 h is 49%. On pepsin [9], this compound displayed a fraction remaining at 8 h of 41%, an amount remaining at 12 h of 35% and a share remaining at 24 h of 24%. In “in vitro [10]”, this compound returned a half-life of 4.02 h, a share remaining at 10 min of 76.6%, an amount remaining at 0.5 h of 68.3% and a share remaining at 1 h of 62.8%. Further, in the data set “in vitro [10]”, the fraction remaining at 2 h was 58.3%, the fraction remaining at 4 h is 49.7%, the amount remaining at 8 h is 40.9% and the share remaining at 12 h was 27.5%. The same compound gave an amount remaining at 24 h in the data set “in vitro [10]” of 19.9%. Also, in the data set “in vitro [11]”, the microsomal CLint (in general, a measure of how fast metabolising enzymes remove a compound, apart from limits set by blood flow) turned out to be 56.5 µL/min/mg; the share remaining at 5 min is 97%; the fraction remaining at 10 min worked out at 70%; the amount remaining at 20 min worked out at 55%. In the data set “in vitro [11]”, the share remaining at 0.5 h was 47%, the fraction remaining at 0.75 h is 37% and the amount remaining at 1 h amounted to 27%. In “in vitro [12]”, this compound showed a half-life of 26 h, a share remaining at 1 h of 90%, an amount remaining at 3 h of 82% and a share remaining at 5 h of 84%. In the data set “in vitro [12]”, this compound showed an amount remaining at 7 h of 76%, a share remaining at 9 h of 67%, an amount remaining at 12 h of 61% and a share remaining at 24 h of 50%. In “in vitro [12]”, this compound had an amount remaining at 36 h of 43%, an amount remaining at 48 h of 32%, a share remaining at 60 h of 25% and a share remaining at 72 h of 12%. This compound had a tR in [13] of 13.5 min. Moreover, the logD7.4 in [14] is 1.65. In addition, in data set [15], the “Half-life of D-Leu1 amide proton (HDX)” value turned out to be 0.767 h, the “Half-life of Leu2 amide proton (HDX)” value was 0.6 h, the “Half-life of Leu3 amide proton (HDX)” value was 3.18 h and the “Half-life of Leu6 amide proton (HDX)” value turned out to be 10.8 h. Moreover, the “Half-life of Tyr5 amide proton (HDX)” value in [15] was 0.583 h. Also, in data set [16] (20% CD3OD in CDCl3), the “Half-life of D-Leu1 amide proton (HDX)” value is 0.167 h, the “Half-life of Leu2 amide proton (HDX)” value was found to be 2 min, the “Half-life of Leu3 amide proton (HDX)” value was over 24 h and the “Half-life of Leu6 amide proton (HDX)” value is over 24 h. In addition, the “Half-life of Tyr5 amide proton (HDX)” value in data set [16] (20% CD3OD in CDCl3) was found to be 3.13 h. Further, in data set [16] (setting [18]), the “% intact NH, Leu3” value came out at 66% and the “% intact NH, Leu6” value is 70%.
Take cyclo(-D-Trp^1-Lys-Thr-Phe-Pro-Phe^6-): in the data set “SIF”, the cleaved bond entry was “Lys2-Thr3, major, 1 hour”.
For `C[C@@H](O)[C@@H]1NC(=O)[C@H](CCCCN)NC(=O)[C@@H](Cc2c[nH]c3ccccc23)NC(=O)[C@H](Cc2ccccc2)NC(=O)[C@@H]2CCCN2C(=S)[C@H](Cc2ccccc2)NC1=O` [13d] (cyclo(F[dW]KT[X9])), the “t1/2 in human blood plasma” value came out at 42 h. In data set [2] (Pe), this compound gave a Papp of 2.29 ×10⁻⁶ cm/s. The logD heptane ethylene glycol in data set [3] is -0.94. The IC50 (commonly the point on the concentration scale where inhibition reaches its midpoint) at SSTR2 was determined as 20.3 ± 11.9 nM. This compound also came in with an IC50 at SSTR5 of over 10000 nM. In the data set “in vivo [17]” (Sprague Dawley), the level at 0.5 h came out at 92 ng/mL and the level at 1 h is 77 ng/mL. In “in vivo [17]” (Sprague-Dawley), the half-life is 1.1 ± 0.4 h. Besides, the pH-dependent lipophilicity (logD) in “physchem” was -0.84. In “in vitro [8]”, this compound showed a free fraction (fraction unbound) of 0.11. In “in vitro [12]”, this compound gave a half-life of 42 h.
